In the supplement of paper PMC11208160:

Assay: recombinant UMI read abundance after kanamycin selection (control-corrected) (log10(CPM+1)); higher = more efficient recombination; extreme values may be limits of the assay; sequences stand for … in AGTGCAGAGAAAATCGGCCAGTTTTCTCTGCCTGCAGTCCGCATGCCGTGGGACCCCTTGGGTTCTAACCTGTTGCCTAGATTTATGCAGCGGACTGCCTTTCTCCCAAAGTGATAAACCGG…AGGTTGGTTTCACT; site = the 11-nt donor
Method in brief: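 Sequencing read counts were converted to CPM, averaged over two replicates and scaled by control-derived factors. Results are given as log10(CPM+1). The reads covered the donor–target junction of recombinant UMIs from a pooled Escherichia coli screen of donor and donor-binding-loop pairs for the IS621 bridge recombinase.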
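Also: IS621 bridge recombinase in Escherichia coli cells against a fixed T5 target plasmid.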

“CCCGGTCCATGGACCGGTTTTCCCGGTAATCCGTATTTGCA (site CCCGGACCTTG)” and “CCCGGTCCATGGACCGGTTTTCCCGGTAATCCGTATTTGCA (site CCCGGCCCTTG)” are the same in “recombinant UMI read abundance (log10)” value: 0 for the first, 0 for the second.

“CCCGGTCCATGGACCGGTTTTCCCGGTAATCCGTATTTGCA (site CCCGGGCCTTG)” and “CCCGGTCCATGGACCGGTTTTCCCGGTAATCCGTATTTGCA (site CCCGGTACTTG)” are within 0.2 log units of each other in “recombinant UMI read abundance (log10)” value: 0.00671 for the first, 0 for the second.

“CCCGGTCCATGGACCGGTTTTCCCGGTAATCCGTATTTGCA (site CCCGGTCCTAG)” and “CCCGGTCCATGGACCGGTTTTCCCGGTAATCCGTATTTGCA (site CCCGGTCCTCG)” are the same in “recombinant UMI read abundance (log10)” value: 0 for the first, 0 for the second.

“CCCGGTCCATGGACCGGTTTTCCCGGTAATCCGTATTTGCA (site CCCGGTCCTGG)” and “CCCGGTCCATGGACCGGTTTTCCCGGTAATCCGTATTTGCA (site CCCGGTCCTTA)” are within 0.2 log units of each other in “recombinant UMI read abundance (log10)” value: 0 for the first, 0.0178 for the second.

“CCCGGTCCATGGACCGGTTTTCCCGGTAATCCGTATTTGCA (site CCCGGTCCTTC)” and “CCCGGTCCATGGACCGGTTTTCCCGGTAATCCGTATTTGCA (site CCCGGTCCTTG)” are the same in “recombinant UMI read abundance (log10)” value: 0 for the first, 0 for the second.

“CCCGGTCCATGGACCGGTTTTCCCGGTAATCCGTATTTGCA (site CCCGGTCCTTT)” and “CCCGGTCCATGGACCGGTTTTCCCGGTAATCCGTATTTGCA (site CCCGGTGCTTG)” are within 0.2 log units of each other in “recombinant UMI read abundance (log10)” value: 0.0121 for the first, 0 for the second.

“CCCGGTCCATGGACCGGTTTTCCCGGTAATCCGTATTTGCA (site CCCGGTTCTTG)” and “CCCGGTCCATGGACCGGTTTTCCCGGTAATCCGTATTTGCA (site CCCGTTCCTTG)” are the same in “recombinant UMI read abundance (log10)” value: 0 for the first, 0 for the second.

“CCCGGTCCATGGACCGGTTTTCCCGGTAATCCGTATTTGCA (site CCCTGTCCTTG)” and “CCCGGTCCATGGACCGGTTTTCCCGGTAATCCGTATTTGCA (site CCGGGTCCTTG)” are within 0.2 log units of each other in “recombinant UMI read abundance (log10)” value: 0.00802 for the first, 0.00973 for the second.

“CCCGGTCCATGGACCGGTTTTCCCGGTAATCCGTATTTGCA (site CCTGGTCCTTG)” and “CCCGGTCCATGGACCGGTTTTCCCGGTAATCCGTATTTGCA (site CGCGGTCCTTG)” are within 0.2 log units of each other in “recombinant UMI read abundance (log10)” value: 0.00597 for the first, 0 for the second.

“CCCGGTCCATGGACCGGTTTTCCCGGTAATCCGTATTTGCA (site CTCGGTCCTTG)” and “CCCGGTCCATGGACCGGTTTTCCCGGTAATCCGTATTTGCA (site GCCGGTCCTTG)” are within 0.2 log units of each other in “recombinant UMI read abundance (log10)” value: 0.00601 for the first, 0 for the second.

“CCCGGTCCATGGACCGGTTTTCCCGGTAATCCGTATTTGCA (site TCCGGTCCTTG)” and “CCCGGTCCATGGACCGGTTTTCCCGGTAATCCGTATTTGCT (site CCCGGTCCTAG)” are within 0.2 log units of each other in “recombinant UMI read abundance (log10)” value: 0.00534 for the first, 0 for the second.

“CCCGGTCCATGGACCGGTTTTCCCGGTAATCCGTATTTGCT (site CCCGGTCCTCG)” and “CCCGGTCCATGGACCGGTTTTCCCGGTAATCCGTATTTGCT (site CCCGGTCCTGG)” are within 0.2 log units of each other in “recombinant UMI read abundance (log10)” value: 0.0027 for the first, 0 for the second.

“CCCGGTCCATGGACCGGTTTTCCCGGTAATCCGTATTTGCT (site CCCGGTCCTTG)” and “CCCGGTCCATGGACCGGTTTTCCCGGTAATCCGTATTTGTA (site CCCGGTCCTTA)” are the same in “recombinant UMI read abundance (log10)” value: 0 for the first, 0 for the second.

“CCCGGTCCATGGACCGGTTTTCCCGGTAATCCGTATTTGTA (site CCCGGTCCTTC)” and “CCCGGTCCATGGACCGGTTTTCCCGGTAATCCGTATTTGTA (site CCCGGTCCTTG)” are within 0.2 log units of each other in “recombinant UMI read abundance (log10)” value: 0.0127 for the first, 0 for the second.

Going from “CCCGGTCCATGGACCGGTTTTCCCGGTAATCCGTATTTGTA (site CCCGGTCCTTT)” to “CCCGTATCATGGACCGGTTTTCCCGGTAATCCGTATTTGGT (site CCCGTATCTAC)”, the “recombinant UMI read abundance (log10)” value rises from 0.041 to 0.563.

First: CCCGTCGCATGGACCGGTTTTCCCGGTAATCCGTATTTGCT (site CCCGTCGCTAG)
Second: CCCTACACATGGACCGGTTTTCCCGGTAATCCGTATTTGTA (site CCCAACACTTA)
The “recombinant UMI read abundance (log10)” value of the first is higher: 0.795 for the first, 0.0262 for the second.

“CCCTACACATGGACCGGTTTTCCCGGTAATCCGTATTTGTA (site CCCCACACTTA)” and “CCCTACACATGGACCGGTTTTCCCGGTAATCCGTATTTGTA (site CCCGACACTTA)” are within 0.2 log units of each other in “recombinant UMI read abundance (log10)” value: 0.00329 for the first, 0.0499 for the second.

Going from “CCCTACACATGGACCGGTTTTCCCGGTAATCCGTATTTGTA (site CCCTACACTTA)” to “CCCTAGCCATGGACCGGTTTTCCCGGTAATCCGTATTTGTC (site CCCTAGCCTGA)”, the “recombinant UMI read abundance (log10)” value rises from 0.0328 to 0.265.

“CCCTAGCCATGGACCGGTTTTCCCGGTAATCCGTATTTGTC (site CCCTAGCCTGC)” and “CCCTAGCCATGGACCGGTTTTCCCGGTAATCCGTATTTGTC (site CCCTAGCCTGG)” are the same in “recombinant UMI read abundance (log10)” value: 0 for the first, 0 for the second.

“CCCTAGCCATGGACCGGTTTTCCCGGTAATCCGTATTTGTC (site CCCTAGCCTGT)” and “CCCTATTCATGGACCGGTTTTCCCGGTAATCCGTATTTGGA (site CCCTATTCTTC)” are within 0.2 log units of each other in “recombinant UMI read abundance (log10)” value: 0 for the first, 0.0708 for the second.

Compared with “CCCTTATCATGGACCGGTTTTCCCGGTAATCCGTATTTGCA (site CCCTTATCTTG)”, “CCCTTATCATGGACCGGTTTTCCCGGTAATCCGTATTTGTC (site CCCATATCTGA)” is lower in “recombinant UMI read abundance (log10)” value: 2.15 for the first, 0 for the second.

“CCCTTATCATGGACCGGTTTTCCCGGTAATCCGTATTTGTC (site CCCCTATCTGA)” and “CCCTTATCATGGACCGGTTTTCCCGGTAATCCGTATTTGTC (site CCCGTATCTGA)” are the same in “recombinant UMI read abundance (log10)” value: 0 for the first, 0 for the second.

Compared with “CCCTTATCATGGACCGGTTTTCCCGGTAATCCGTATTTGTC (site CCCTTATCTGA)”, “CCCTTCTCATGGACCGGTTTTCCCGGTAATCCGTATTTGAG (site CCCTTCTCTCA)” is lower in “recombinant UMI read abundance (log10)” value: 0.909 for the first, 0.00351 for the second.

“CCCTTCTCATGGACCGGTTTTCCCGGTAATCCGTATTTGAG (site CCCTTCTCTCC)” and “CCCTTCTCATGGACCGGTTTTCCCGGTAATCCGTATTTGAG (site CCCTTCTCTCG)” are within 0.2 log units of each other in “recombinant UMI read abundance (log10)” value: 0.00506 for the first, 0.01 for the second.

“CCCTTCTCATGGACCGGTTTTCCCGGTAATCCGTATTTGAG (site CCCTTCTCTCT)” and “CCCTTCTCATGGACCGGTTTTCCCGGTAATCCGTATTTGCG (site CCCTTCTCTCA)” are within 0.2 log units of each other in “recombinant UMI read abundance (log10)” value: 0.00554 for the first, 0.02 for the second.

Going from “CCCTTCTCATGGACCGGTTTTCCCGGTAATCCGTATTTGCG (site CCCTTCTCTCC)” to “CCCTTCTCATGGACCGGTTTTCCCGGTAATCCGTATTTGCG (site CCCTTCTCTCG)”, the “recombinant UMI read abundance (log10)” value rises from 0.195 to 1.08.

“CCCTTCTCATGGACCGGTTTTCCCGGTAATCCGTATTTGCG (site CCCTTCTCTCT)” and “CCCTTCTCATGGACCGGTTTTCCCGGTAATCCGTATTTGGA (site CCCTTCTCTAC)” are within 0.2 log units of each other in “recombinant UMI read abundance (log10)” value: 0.061 for the first, 0 for the second.

“CCCTTCTCATGGACCGGTTTTCCCGGTAATCCGTATTTGGA (site CCCTTCTCTCC)” and “CCCTTCTCATGGACCGGTTTTCCCGGTAATCCGTATTTGGA (site CCCTTCTCTGC)” are within 0.2 log units of each other in “recombinant UMI read abundance (log10)” value: 0.0081 for the first, 0 for the second.

Compared with “CCCTTCTCATGGACCGGTTTTCCCGGTAATCCGTATTTGGA (site CCCTTCTCTTC)”, “CCCTTGCCATGGACCGGTTTTCCCGGTAATCCGTATTTGCC (site CCCTAGCCTGG)” is lower in “recombinant UMI read abundance (log10)” value: 0.21 for the first, 0 for the second.

“CCCTTGCCATGGACCGGTTTTCCCGGTAATCCGTATTTGCC (site CCCTCGCCTGG)” and “CCCTTGCCATGGACCGGTTTTCCCGGTAATCCGTATTTGCC (site CCCTGGCCTGG)” are the same in “recombinant UMI read abundance (log10)” value: 0 for the first, 0 for the second.

First: CCCTTGCCATGGACCGGTTTTCCCGGTAATCCGTATTTGCC (site CCCTTGCCTGG)
Second: CCCTTGTCATGGACCGGTTTTCCCGGTAATCCGTATTTGGG (site CCCTTATCTCC)
The “recombinant UMI read abundance (log10)” value of the first is lower: 0 for the first, 0.393 for the second.

Going from “CCCTTGTCATGGACCGGTTTTCCCGGTAATCCGTATTTGGG (site CCCTTCTCTCC)” to “CCCTTGTCATGGACCGGTTTTCCCGGTAATCCGTATTTGGG (site CCCTTGTCTCC)”, the “recombinant UMI read abundance (log10)” value rises from 0.00922 to 0.297.

“CCCTTGTCATGGACCGGTTTTCCCGGTAATCCGTATTTGGG (site CCCTTTTCTCC)” and “CCCTTTACATGGACCGGTTTTCCCGGTAATCCGTATTTGCT (site CCATTTACTAG)” are within 0.2 log units of each other in “recombinant UMI read abundance (log10)” value: 0.0116 for the first, 0 for the second.

First: CCCTTTACATGGACCGGTTTTCCCGGTAATCCGTATTTGCT (site CCCTTTACTAG)
Second: CCCTTTACATGGACCGGTTTTCCCGGTAATCCGTATTTGCT (site CCGTTTACTAG)
The “recombinant UMI read abundance (log10)” value of the first is higher: 1.76 for the first, 0 for the second.

“CCCTTTACATGGACCGGTTTTCCCGGTAATCCGTATTTGCT (site CCTTTTACTAG)” and “CCGAAACCATGGACCGGTTTTCCCGGTAATCCGTATTTGTT (site CCGAAACCTAA)” are the same in “recombinant UMI read abundance (log10)” value: 0 for the first, 0 for the second.

Going from “CCGAAACCATGGACCGGTTTTCCCGGTAATCCGTATTTGTT (site CGGAATCCTAA)” to “CCGAAGGCATGGACCGGTTTTCCCGGTAATCCGTATTTGTG (site CCGAAGGCTCA)”, the “recombinant UMI read abundance (log10)” value rises from 0.00312 to 0.495.

“CCGAATACATGGACCGGTTTTCCCGGTAATCCGTATTTGGC (site CCAAATACTGC)” and “CCGAATACATGGACCGGTTTTCCCGGTAATCCGTATTTGGC (site CCCAATACTGC)” are the same in “recombinant UMI read abundance (log10)” value: 0 for the first, 0 for the second.

With “CCGAATACATGGACCGGTTTTCCCGGTAATCCGTATTTGGC (site CCGAATACTGC)” the “recombinant UMI read abundance (log10)” value was 0.
